Measured values taken from patent US9856279B2 (AGIOS PHARMACEUTICALS, INC, priority 2011, dated 2018).

Key:
[1] = molecular target: IDH1 R132H (Homo sapiens, UniProt O75874, R132H); experiment: Assay for IDH1 R132H inhibitors (NADPH/aKG, resazurin detection); assay type: biochemical; conditions: enzyme assay of Example 12; read-out: IDH1R132H IC50
Summary of the method: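 Read-out is resorufin fluorescence (Ex544/Em590) 5 min after adding a 30 μM resazurin detection mix. Before that, mutant enzyme (0.2 μg/ml in its mix) ran 50 min at room temperature with compound, 8 uM NADPH and 2 mM aKG (mix levels) in Tris pH 7.5 with NaCl, MgCl2, BSA.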

[2] = test system: HT1080 cells; experiment: Cellular assay for IDH1m inhibitors: inhibition of 2-HG production (LC-MS, 48 hours) in HT1080 cells; assay type: cell-based; conditions: Homo sapiens, HT-1080; inhibition of 2-HG production, HT1080 cells; read-out: HT1080 IC50
Experimental: Cells (e.g., HT1080 or U87MG) and are grown in T125 flasks in DMEM containing 10% FBS, 1× penicillin/streptomycin and 500 ug/mL G418. They are harvested by trypsin and seeded into 96 well white bottom plates at a density of 5000 cell/well in 100 ul/well in DMEM with 10% FBS. No cells are plates in columns 1 and 12. Cells are incubated overnight at 37° C. in 5% CO2. The next day compounds are made up at 2× concentration and 100 ul are added to each cell well. The final concentration of DMSO is 0.2% and the DMSO control wells are plated in row G. The plates are then placed in the incubator for 48 hours. At 48 hours, 100 μl of media is removed from each well and analyzed by LC-MS for 2-HG concentrations. The cell plate is placed back in the incubator for another 24 hours. At 72 hours post compound addition, 10 mL/plate of Promega Cell Titer Glo reagent is thawed and mixed. The cell plate is removed from the incubator and allowed to equilibrate to room temperature. Then 100 ul of reagent is added to each well of media. The cell plate is then placed on an orbital shaker for 10 minutes and then allowed to sit at room temperature for 20 minutes. The plate is then read for luminescence with an integration time of 500 ms.
The IC50 for inhibition of 2-HG production (concentration of test compound to reduce 2HG production by 50% compared to control) in these two cell lines for various compounds of formula I is set forth in Table 4 above.

Sequence of IDH1 R132H (O75874 whole entry R132H): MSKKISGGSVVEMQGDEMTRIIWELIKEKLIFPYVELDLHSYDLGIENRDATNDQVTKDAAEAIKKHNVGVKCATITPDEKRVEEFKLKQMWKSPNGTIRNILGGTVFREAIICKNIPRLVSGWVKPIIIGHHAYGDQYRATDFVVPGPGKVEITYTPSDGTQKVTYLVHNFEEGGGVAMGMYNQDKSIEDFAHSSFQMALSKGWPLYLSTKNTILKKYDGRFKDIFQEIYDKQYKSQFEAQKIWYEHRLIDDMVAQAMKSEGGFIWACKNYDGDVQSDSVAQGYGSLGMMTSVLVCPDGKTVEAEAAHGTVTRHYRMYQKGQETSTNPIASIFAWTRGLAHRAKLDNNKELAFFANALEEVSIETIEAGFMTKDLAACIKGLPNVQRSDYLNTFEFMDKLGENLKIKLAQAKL

Row | IC50 [1] | IC50 [2] | SMILES
1 | < 500 nM | < 500 nM | Cc1cc(-c2cc(C#N)c(N3CCN(C(=O)C4CC4)[C@H](C4CC4)C3)nc2C2CC2)c2ccncc2n1 [Compound 553, (R)-2-(4-(cyclopropanecarbonyl)-3-cyclopropylpiperazin-1-yl)-6-cyclopropyl-5-(2-methyl-1,7-naphthyridin-4-yl)nicotinonitrile]
2 | < 500 nM | < 500 nM | C#CC(=O)N1CCC=C(c2cc(C#N)c(N3CCN(C(=O)C4CC4)[C@H](C)C3)nc2C2CC2)C1 [Compound 594, (R)-2-(4-(cyclopropanecarbonyl)-3-methylpiperazin-1-yl)-6-cyclopropyl-5-(1-propioloyl-1,2,5,6-tetrahydropyridin-3-yl)nicotinonitrile]
3 | < 500 nM | < 500 nM | C=C(CO)c1cc(-c2cc(C#N)c(N3CCN(C(=O)CCOC)[C@H](C)C3)nc2C2CC2)ccn1 [Compound 653, (R)-2-cyclopropyl-2′-(3-hydroxyprop-1-en-2-yl)-6-(4-(3-methoxypropanoyl)-3-methylpiperazin-1-yl)-[3,4′-bipyridine]-5-carbonitrile]
4 | < 500 nM | < 500 nM | C=Cc1cc(-c2c(C3CC3)nc(N3CCN(C(=O)C[C@H]4CCO4)[C@H](C4CC4)C3)c(C#N)c2CC)ccn1 [Compound 823, 2-cyclopropyl-6-((R)-3-cyclopropyl-4-(2-((R)-oxetan-2-yl)acetyl)piperazin-1-yl)-4-ethyl-2′-vinyl-[3,4′-bipyridine]-5-carbonitrile]
5 | < 500 nM | 500 to 1000 nM | N#Cc1cc(-c2ccc3ncsc3c2)c(C2CC2)nc1N1CCN(C(=O)CC(F)(F)F)[C@H](C2CC2)C1 [Compound 537, (R)-5-(benzo[d]thiazol-6-yl)-6-cyclopropyl-2-(3-cyclopropyl-4-(3,3,3-trifluoropropanoyl)piperazin-1-yl)nicotinonitrile]
6 | < 500 nM | < 500 nM | C=Cc1cc(-c2cc(C#N)c(N3CCN(C(=O)C4(O)CC4)[C@H](C)C3)nc2C2CC2)ccn1 [Compound 664, (R)-2-cyclopropyl-6-(4-(1-hydroxycyclopropanecarbonyl)-3-methylpiperazin-1-yl)-2′-vinyl-3,4′-bipyridine-5-carbonitrile]
7 | < 500 nM | < 500 nM | C=C(F)c1cc(-c2cc(C#N)c(N3CCN(C(=O)CCOC)[C@H](C)C3)nc2C2CC2)ncn1 [Compound 602, (R)-6-cyclopropyl-5-(6-(1-fluorovinyl)pyrimidin-4-yl)-2-(4-(3-methoxypropanoyl)-3-methylpiperazin-1-yl)nicotinonitrile]
8 | 500 to 1000 nM | 1000 to 10000 nM | C[C@@H]1CN(c2nc(C3CC3)c(-c3ccnc(C#N)c3)cc2C#N)CCN1C(=O)C1CC1 [Compound 522, (R)-6-(4-(cyclopropanecarbonyl)-3-methylpiperazin-1-yl)-2-cyclopropyl-3,4′-bipyridine-2′,5-dicarbonitrile]
9 | < 500 nM | 500 to 1000 nM | CC(=O)N1CCN(c2nc(C3CC3)c(-c3cccc4cnccc34)cc2C#N)C[C@H]1C [Compound 516, (R)-2-(4-acetyl-3-methylpiperazin-1-yl)-6-cyclopropyl-5-(isoquinolin-5-yl)nicotinonitrile]
10 | < 500 nM | 1000 to 10000 nM | N#Cc1cc(-c2cnc3[nH]ccc3c2)c(C2CC2)nc1N1CCN(C(=O)CC(F)(F)F)[C@H](C2CC2)C1 [Compound 539, (R)-6-cyclopropyl-2-(3-cyclopropyl-4-(3,3,3-trifluoropropanoyl)piperazin-1-yl)-5-(1H-pyrrolo[2,3-b]pyridin-5-yl)nicotinonitrile]
11 | < 500 nM | < 500 nM | C=Cc1ccc(-c2cc(C#N)c(N3CCN(C(=O)CCOC)[C@H](C)C3)nc2C2CC2)cn1 [Compound 620, (R)-2-cyclopropyl-6-(4-(3-methoxypropanoyl)-3-methylpiperazin-1-yl)-6′-vinyl-3,3′-bipyridine-5-carbonitrile]
12 | < 500 nM | < 500 nM | C=Cc1cnc2c(/C=C/c3cnc4c(-c5cc(C#N)c(N6CCN(C(=O)CCOC)[C@H](C)C6)nc5C5CC5)cccc4n3)cccc2n1 [Compound 604, (R,E)-6-cyclopropyl-2-(4-(3-methoxypropanoyl)-3-methylpiperazin-1-yl)-5-(2-(2-(2-vinylquinoxalin-5-yl)vinyl)quinoxalin-5-yl)nicotinonitrile]
13 | < 500 nM | < 500 nM | Cn1cc(-c2cc(C#N)c(N3CCN(C(=O)CC(F)(F)F)[C@H](C4CC4)C3)nc2C2CC2)c2ccccc2c1=O [Compound 536, (R)-6-cyclopropyl-2-(3-cyclopropyl-4-(3,3,3-trifluoropropanoyl)piperazin-1-yl)-5-(2-methyl-1-oxo-1,2-dihydroisoquinolin-4-yl)nicotinonitrile]
14 | < 500 nM | < 500 nM | C=Cc1cc(-c2c(C3CC3)nc(N3CCN(C(=O)CC4CCC4)[C@H](C4CC4)C3)c(C#N)c2C)ccn1 [Compound 819, (R)-6-(4-(2-cyclobutylacetyl)-3-cyclopropylpiperazin-1-yl)-2-cyclopropyl-4-methyl-2′-vinyl-3,4′-bipyridine-5-carbonitrile]
15 | < 500 nM | 1000 to 10000 nM | C[C@@H]1CN(c2nc(C3CC3)c(Nc3ccc(C#N)nc3)cc2C#N)CCN1C(=O)CCO [Compound 582, (R)-5-((5-cyano-2-cyclopropyl-6-(4-(3-hydroxypropanoyl)-3-methylpiperazin-1-yl)pyridin-3-yl)amino)picolinonitrile]
16 | 500 to 1000 nM | 1000 to 10000 nM | C=Cc1ncc(Cl)c(-c2cc(C#N)c(N3CCN(C(=O)C4CC4)[C@H](C4CC4)C3)nc2C2CC2)n1 [Compound 533, (R)-5-(5-chloro-2-vinylpyrimidin-4-yl)-2-(4-(cyclopropanecarbonyl)-3-cyclopropylpiperazin-1-yl)-6-cyclopropylnicotinonitrile]
17 | < 500 nM | < 500 nM | COCCC(=O)N1CCN(c2nc(C3CC3)c(Nc3ccnc(Cl)c3)cc2C#N)C[C@H]1C1CC1 [Compound 679, (R)-5-((2-chloropyridin-4-yl)amino)-6-cyclopropyl-2-(3-cyclopropyl-4-(3-methoxypropanoyl)piperazin-1-yl)nicotinonitrile]
18 | 500 to 1000 nM | < 500 nM | C=CC(=O)N1CCCC(c2cc(C#N)c(N3CCN(C(=O)C4CC4)[C@H](C)C3)nc2C2CC2)C1 (stereo partly drawn) [Compound 576, 5-(1-acryloylpiperidin-3-yl)-2-((R)-4-(cyclopropanecarbonyl)-3-methylpiperazin-1-yl)-6-cyclopropylnicotinonitrile]
19 | < 500 nM | < 500 nM | C=Cc1cc(-c2cc(C#N)c(N3CCN(C(=O)CCOC)[C@H](C4CC4)C3)nc2C2CC2)c2ccccc2n1 [Compound 574, (R)-6-cyclopropyl-2-(3-cyclopropyl-4-(3-methoxypropanoyl)piperazin-1-yl)-5-(2-vinylquinolin-4-yl)nicotinonitrile]
20 | < 500 nM | < 500 nM | CCO[C@H]1C[C@@H]1C(=O)N1CCN(c2nc(C3CC3)c(-c3cccc4cnccc34)cc2C#N)C[C@H]1C1CC1 [Compound 514, 6-cyclopropyl-2-((R)-3-cyclopropyl-4 ((1S,2S)-2-ethoxycyclopropanecarbonyl)piperazin-1-yl)-5-(isoquinolin-5-yl)nicotinonitrile]
